Laboratory results: patent publication US20250228239A1, “MOLECULES HAVING PESTICIDAL UTILITY, AND INTERMEDIATES, COMPOSITIONS, AND PROCESSES, RELATED THERETO” (priority 2024, published 2025)

Tests used:
[1] = tested on: Beet Armyworm (Spodoptera exigua, LAPHEG); assay: Bioassays on Beet Armyworm (BAW), 128-well diet tray assay; type: in vivo; conditions: Spodoptera exigua; Beet Armyworm; rating class; read-out: BAW
Outline: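 Mortality of second-instar larvae (1–5/well) on artificial diet treated with 50 μg/cm^2 compound, read after 5–7 days at 25° C.; values are means of eight wells.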

[2] = tested on: Cabbage Looper (Trichoplusia ni, TRIPNI); assay: Bioassays on Cabbage Looper (CL), 128-well diet tray assay; type: in vivo; conditions: Trichoplusia ni; Cabbage Looper; rating class; read-out: CL
Outline: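 Percent mortality, averaged across eight replicate wells, after second-instar larvae (1–5 per well) fed for five to seven days on diet dosed at 50 μg/cm^2. Compound was applied in acetone-water 90:10 and dried; trays kept vented at 25° C under 14:10 photoperiod.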

SMILES | pest or weed control at 50 µg/cm2 [1] [%] | pest or weed control at 50 µg/cm2 [2] [%]
O=C(Nc1ccc(F)c(NC(=O)C(F)(F)F)c1F)c1cc(NC(=O)[C@H]2[C@H](c3ccc(F)c(C(F)(F)F)c3)C2(Cl)Cl)cc(F)c1F [F1572, 5-((1R,3R)-2,2-Dichloro-3-(4-fluoro-3-(trifluoromethyl)phenyl)cyclopropane-1-carboxamido)-N-(2,4-difluoro-3-(2,2,2-trifluoroacetamido)phenyl)-2,3-difluorobenzamide] | 50 to 100 | 50 to 100
O=C(Nc1c(F)ccc(NC(=O)C(F)F)c1F)c1cc(NC(=O)[C@H]2[C@H](c3ccc(F)c(C(F)(F)F)c3)C2(Cl)Cl)cc(F)c1F [F1573, 5-((1R,3R)-2,2-Dichloro-3-(4-fluoro-3-(trifluoromethyl)phenyl)cyclopropane-1-carboxamido)-N-(3-(2,2-difluoroacetamido)-2,6-difluorophenyl)-2,3-difluorobenzamide] | 50 to 100 | 50 to 100
O=C(Nc1c(F)ccc(NC(=O)C(F)(F)F)c1F)c1cc(NC(=O)[C@H]2[C@H](c3ccc(F)c(C(F)(F)F)c3)C2(Cl)Cl)cc(F)c1F [F1574, 5-((1R,3R)-2,2-Dichloro-3-(4-fluoro-3-(trifluoromethyl)phenyl)cyclopropane-1-carboxamido)-N-(2,6-difluoro-3-(2,2,2-trifluoroacetamido)phenyl)-2,3-difluorobenzamide] | 50 to 100 | 50 to 100
CC(=O)Nc1ccc(F)c(NC(=O)c2cc(NC(=O)[C@H]3[C@H](c4ccc(Cl)c(Cl)c4)C3(Cl)Cl)cc(F)c2F)c1F [F1575, N-(3-Acetamido-2,6-difluorophenyl)-5-((1R,3R)-2,2-dichloro-3-(3,4-dichlorophenyl)cyclopropane-1-carboxamido)-2,3-difluorobenzamide] | 50 to 100 | 50 to 100
CC(=O)Nc1ccc(F)c(NC(=O)c2cc(NC(=O)[C@H]3[C@H](c4ccc(F)c(C(F)(F)F)c4)C3(Cl)Cl)cc(F)c2F)c1F [F1576, N-(3-Acetamido-2,6-difluorophenyl)-5-((1R,3R)-2,2-dichloro-3-(4-fluoro-3-(trifluoromethyl)phenyl)cyclopropane-1-carboxamido)-2,3-difluorobenzamide] | 50 to 100 | 50 to 100
O=C(Nc1c(F)ccc(NC(=O)C(F)F)c1F)c1cc(NC(=O)[C@H]2[C@H](c3ccc(Cl)c(Cl)c3)C2(Cl)Cl)cc(F)c1F [F1577, 5-((1R,3R)-2,2-Dichloro-3-(3,4-dichlorophenyl)cyclopropane-1-carboxamido)-N-(3-(2,2-difluoroacetamido)-2,6-difluorophenyl)-2,3-difluorobenzamide] | 50 to 100 | 50 to 100
O=C(Nc1c(F)ccc(NC(=O)C(F)(F)F)c1F)c1cc(NC(=O)[C@H]2[C@H](c3ccc(Cl)c(Cl)c3)C2(Cl)Cl)cc(F)c1F [F1578, 5-((1R,3R)-2,2-Dichloro-3-(3,4-dichlorophenyl)cyclopropane-1-carboxamido)-N-(2,6-difluoro-3-(2,2,2-trifluoroacetamido)phenyl)-2,3-difluorobenzamide] | 50 to 100 | 50 to 100
O=C(Nc1cc(NC(=O)C(F)(F)F)c(F)cc1F)c1cc(NC(=O)[C@H]2[C@H](c3cc(Cl)c(Cl)c(Cl)c3)C2(Cl)Cl)cc(F)c1F [F1579, 5-((1R,3R)-2,2-Dichloro-3-(3,4,5-trichlorophenyl)cyclopropane-1-carboxamido)-N-(2,4-difluoro-5-(2,2,2-trifluoroacetamido)phenyl)-2,3-difluorobenzamide] | 50 to 100 | 50 to 100
O=C(Nc1cc(NC(=O)C(F)F)c(F)cc1F)c1cc(NC(=O)[C@H]2[C@H](c3cc(Cl)c(Cl)c(Cl)c3)C2(Cl)Cl)cc(F)c1F [F1580, 5-((1R,3R)-2,2-Dichloro-3-(3,4,5-trichlorophenyl)cyclopropane-1-carboxamido)-N-(5-(2,2-difluoroacetamido)-2,4-difluorophenyl)-2,3-difluorobenzamide] | 50 to 100 | 50 to 100
CC(=O)Nc1cc(NC(=O)c2cc(NC(=O)[C@H]3[C@H](c4cc(Cl)c(Cl)c(Cl)c4)C3(Cl)Cl)cc(F)c2F)c(F)cc1F [F1581, N-(5-Acetamido-2,4-difluorophenyl)-5-((1R,3R)-2,2-dichloro-3-(3,4,5-trichlorophenyl)cyclopropane-1-carboxamido)-2,3-difluorobenzamide] | 50 to 100 | 50 to 100
O=C(Nc1cc(NC(=O)C(F)(F)F)c(F)cc1F)c1cc(NC(=O)[C@H]2[C@H](c3ccc(Cl)c(Cl)c3)C2(Cl)Cl)cc(F)c1F [F1582, 5-((1R,3R)-2,2-Dichloro-3-(3,4-dichlorophenyl)cyclopropane-1-carboxamido)-N-(2,4-difluoro-5-(2,2,2-trifluoroacetamido)phenyl)-2,3-difluorobenzamide] | 50 to 100 | 50 to 100
O=C(Nc1cc(NC(=O)C(F)F)c(F)cc1F)c1cc(NC(=O)[C@H]2[C@H](c3ccc(Cl)c(Cl)c3)C2(Cl)Cl)cc(F)c1F [F1583, 5-((1R,3R)-2,2-Dichloro-3-(3,4-dichlorophenyl)cyclopropane-1-carboxamido)-N-(5-(2,2-difluoroacetamido)-2,4-difluorophenyl)-2,3-difluorobenzamide] | 50 to 100 | 50 to 100
O=C(Nc1cc(NC(=O)C(F)(F)F)c(F)cc1F)c1cc(NC(=O)[C@H]2[C@H](c3ccc(F)c(C(F)(F)F)c3)C2(Cl)Cl)cc(F)c1F [F1584, 5-((1R,3R)-2,2-Dichloro-3-(4-fluoro-3-(trifluoromethyl)phenyl)cyclopropane-1-carboxamido)-N-(2,4-difluoro-5-(2,2,2-trifluoroacetamido)phenyl)-2,3-difluorobenzamide] | 50 to 100 | 50 to 100
CC(=O)Nc1cc(NC(=O)c2cc(NC(=O)[C@H]3[C@H](c4ccc(Cl)c(Cl)c4)C3(Cl)Cl)cc(F)c2F)c(F)cc1F [F1585, N-(5-Acetamido-2,4-difluorophenyl)-5-((1R,3R)-2,2-dichloro-3-(3,4-dichlorophenyl)cyclopropane-1-carboxamido)-2,3-difluorobenzamide] | 50 to 100 | 50 to 100
O=C(Nc1cc(NC(=O)C(F)F)c(F)cc1F)c1cc(NC(=O)[C@H]2[C@H](c3ccc(F)c(C(F)(F)F)c3)C2(Cl)Cl)cc(F)c1F [F1586, 5-((1R,3R)-2,2-Dichloro-3-(4-fluoro-3-(trifluoromethyl)phenyl)cyclopropane-1-carboxamido)-N-(5-(2,2-difluoroacetamido)-2,4-difluorophenyl)-2,3-difluorobenzamide] | 50 to 100 | 50 to 100
CC(=O)Nc1cc(NC(=O)c2cc(NC(=O)[C@H]3[C@H](c4ccc(F)c(C(F)(F)F)c4)C3(Cl)Cl)cc(F)c2F)c(F)cc1F [F1587, N-(5-Acetamido-2,4-difluorophenyl)-5-((1R,3R)-2,2-dichloro-3-(4-fluoro-3-(trifluoromethyl)phenyl)cyclopropane-1-carboxamido)-2,3-difluorobenzamide] | 50 to 100 | 50 to 100
O=C(Nc1c(F)ccc(NC(=O)C(F)(F)F)c1F)c1cc(NC(=O)[C@H]2[C@H](c3cc(Cl)c(Cl)c(Cl)c3)C2(Cl)Cl)cc(F)c1F [F1588, 5-((1R,3R)-2,2-Dichloro-3-(3,4,5-trichlorophenyl)cyclopropane-1-carboxamido)-N-(2,6-difluoro-3-(2,2,2-trifluoroacetamido)phenyl)-2,3-difluorobenzamide] | 50 to 100 | 50 to 100
O=C(Nc1c(F)ccc(NC(=O)C(F)F)c1F)c1cc(NC(=O)[C@H]2[C@H](c3cc(Cl)c(Cl)c(Cl)c3)C2(Cl)Cl)cc(F)c1F [F1589, 5-((1R,3R)-2,2-Dichloro-3-(3,4,5-trichlorophenyl)cyclopropane-1-carboxamido)-N-(3-(2,2-difluoroacetamido)-2,6-difluorophenyl)-2,3-difluorobenzamide] | 50 to 100 | 50 to 100
CC(=O)Nc1ccc(F)c(NC(=O)c2cc(NC(=O)[C@H]3[C@H](c4cc(Cl)c(Cl)c(Cl)c4)C3(Cl)Cl)cc(F)c2F)c1F [F1590, N-(3-Acetamido-2,6-difluorophenyl)-5-((1R,3R)-2,2-dichloro-3-(3,4,5-trichlorophenyl)cyclopropane-1-carboxamido)-2,3-difluorobenzamide] | 50 to 100 | 50 to 100
N#CC1(C(=O)Nc2c(F)ccc(NC(=O)c3cc(NC(=O)[C@H]4[C@H](c5ccc(Cl)c(Cl)c5)C4(Cl)Cl)ccc3Cl)c2F)CC1 [F1609, 2-Chloro-N-(3-(1-cyanocyclopropane-1-carboxamido)-2,4-difluorophenyl)-5-((1R,3R)-2,2-dichloro-3-(3,4-dichlorophenyl)cyclopropane-1-carboxamido)benzamide] | 50 to 100 | 50 to 100
O=C(Nc1ccc(F)c(NC(=O)C2CCCO2)c1F)c1cc(NC(=O)[C@H]2[C@H](c3ccc(Cl)c(Cl)c3)C2(Cl)Cl)ccc1Cl (stereo partly drawn) [F1611, N-(3-(2-Chloro-5-((1R,3R)-2,2-dichloro-3-(3,4-dichlorophenyl)cyclopropane-1-carboxamido)benzamido)-2,6-difluorophenyl)tetrahydrofuran-2-carboxamide] | 50 to 100 | 50 to 100
